Experimental findings from the Kinase Knowledgebase extract (Sharma et al. 2016) are described below.

PIK3CG (human), sequence (P48736 whole entry, looked up): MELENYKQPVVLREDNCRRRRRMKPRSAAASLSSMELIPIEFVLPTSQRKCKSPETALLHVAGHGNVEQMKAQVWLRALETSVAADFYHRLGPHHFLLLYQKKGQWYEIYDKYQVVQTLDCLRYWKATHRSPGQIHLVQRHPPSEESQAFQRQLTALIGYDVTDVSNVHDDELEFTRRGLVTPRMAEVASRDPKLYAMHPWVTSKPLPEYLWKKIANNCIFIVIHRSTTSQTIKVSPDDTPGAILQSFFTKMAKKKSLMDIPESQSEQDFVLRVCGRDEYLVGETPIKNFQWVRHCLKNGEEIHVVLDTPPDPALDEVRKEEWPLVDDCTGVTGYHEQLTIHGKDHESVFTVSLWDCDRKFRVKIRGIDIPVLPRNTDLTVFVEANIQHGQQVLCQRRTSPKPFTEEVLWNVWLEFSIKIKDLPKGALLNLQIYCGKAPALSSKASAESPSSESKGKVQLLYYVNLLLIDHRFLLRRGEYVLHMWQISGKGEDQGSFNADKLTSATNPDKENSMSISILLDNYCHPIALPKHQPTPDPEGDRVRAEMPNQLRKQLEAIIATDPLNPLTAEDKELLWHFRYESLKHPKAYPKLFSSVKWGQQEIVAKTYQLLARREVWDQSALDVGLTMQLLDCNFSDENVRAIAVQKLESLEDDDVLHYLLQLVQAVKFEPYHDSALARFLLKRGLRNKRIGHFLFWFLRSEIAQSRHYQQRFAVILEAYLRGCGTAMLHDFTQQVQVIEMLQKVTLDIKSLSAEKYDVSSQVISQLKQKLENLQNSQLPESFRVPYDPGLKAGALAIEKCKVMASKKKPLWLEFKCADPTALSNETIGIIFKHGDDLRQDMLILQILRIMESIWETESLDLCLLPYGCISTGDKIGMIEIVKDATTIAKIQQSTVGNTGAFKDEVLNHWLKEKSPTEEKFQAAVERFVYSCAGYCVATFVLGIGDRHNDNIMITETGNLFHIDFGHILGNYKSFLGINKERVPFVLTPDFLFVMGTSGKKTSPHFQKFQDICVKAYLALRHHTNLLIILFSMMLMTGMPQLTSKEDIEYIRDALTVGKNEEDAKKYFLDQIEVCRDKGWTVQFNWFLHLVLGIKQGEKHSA

The test concerns the target PIK3CG (human) (UniProt P48736). The test can be described thus: Inhibition of PIK3CG Kinase Activity.
In general, IC50 refers to the point on the concentration scale where inhibition reaches its midpoint. Read a high IC50 as a need for much substance. Consider `CC(=O)Nc1nc2c(s1)-c1c(c(C3(C)CC3)nn1-c1ccc(C(=O)NC3CCN(C4CCOCC4)CC3)cc1Cl)CC2`, for which the IC50 is less than 600 nM.

`CCCN1CCC(NC(=O)c2ccc(-n3nc(C4CC4)c4c3-c3sc(NC(C)=O)nc3CC4)cc2Cl)CC1` registered an IC50 of less than 600 nM.

`CC(=O)Nc1nc2c(s1)-c1c(c(C3CC3)nn1-c1ccc(C(=O)N[C@@H]3CCN(C4CCCC4)C3)c(Cl)c1)CC2` yielded an IC50 of less than 600 nM.

As for `CC(=O)Nc1nc2c(s1)-c1c(c(C3CCCC3)nn1-c1ccccc1Cl)CC2`, the concentration for half-maximal inhibition (IC50) was less than 600 nM.

In the case of `CC(=O)Nc1nc2c(s1)-c1c(c(C3CC3)nn1-c1ccc(C(=O)NCC3CCN(C4CCCC4)CC3)cc1Cl)CC2`, the IC50 is less than 600 nM.

In the case of `CC(=O)Nc1nc2c(s1)-c1c(c(C3CC3)nn1-c1ccc(C(=O)N[C@@H]3CCN(C4CCCCC4)C3)c(F)c1)CC2`, the IC50 is less than 600 nM.

Molecule `CC(=O)Nc1nc2c(s1)-c1c(c(C3CC3)nn1-c1ccc(C(=O)NC[C@H]3CCN(C4CCCC4)C3)c(Cl)c1)CC2` came in with an IC50 of less than 600 nM.

As for `CCCN1CCC(NC(=O)c2ccc(-n3nc(C4CC4)c4c3-c3sc(NC(C)=O)nc3CC4)c(C)c2)CC1`, the IC50 is less than 600 nM.

Consider `CCN(C(=O)c1ccc(-n2nc(C3CC3)c3c2-c2sc(NC(C)=O)nc2CC3)cc1F)[C@H]1CC[C@@H](N2CCCC2)CC1`, for which the IC50 was less than 600 nM.

`CC(=O)Nc1nc2c(s1)-c1c(c(C3CC3)nn1-c1ccc(C(=O)NC[C@@H]3CCN(C4CCCC4)C3)c(Cl)c1)CC2` gave an IC50 of less than 600 nM.

Turning to `CC(=O)Nc1nc2c(s1)-c1c(c(C3CC3)nn1-c1ccc(C(=O)NC[C@@H]3CCCN3C3CCCC3)c(Cl)c1)CC2`, the IC50 was less than 600 nM.

For `CC(=O)Nc1nc2c(s1)-c1c(c(C3CC3)nn1-c1ccc(C(=O)N(C)[C@@H]3CCN(C4CCCC4)C3)cc1Cl)CC2`, the IC50 was less than 600 nM.

Consider `CC(=O)Nc1nc2c(s1)-c1c(c(C3CC3)nn1-c1ccc(C(=O)N(C)C3CCN(CC4CCCC4)CC3)c(Cl)c1)CC2`, for which the IC50 is less than 600 nM.

`CC(=O)Nc1nc2c(s1)-c1c(c(C3CC3)nn1-c1ccc(C(=O)N[C@@H]3CCN(C4CCCC4)C3)cc1C)CC2` registered an IC50 of less than 600 nM.

`CC(=O)Nc1nc2c(s1)-c1c(c(C3CC3)nn1-c1ccc(C(=O)NC[C@H]3CCN(CC4CCCC4)C3)c(Cl)c1)CC2` showed an IC50 of less than 600 nM.

For `CC(=O)Nc1nc2c(s1)-c1c(c(C3CC3)nn1-c1ccc(C(=O)N[C@H]3CC[C@@H](N(C)CC4CC4)CC3)cc1C)CC2`, the IC50 was less than 600 nM.

As to `CC(=O)Nc1nc2c(s1)-c1c(c(C3CC3)nn1C1CCN(C(=O)C3CCCCC3)CC1)CC2`, the IC50 was less than 600 nM.

`CC(=O)Nc1nc2c(s1)-c1c(c(C3CC3)nn1C1CCC(C(=O)N[C@H]3CC[C@H](N4CCCC4)CC3)CC1)CC2` (some centres not stated) had an IC50 of less than 600 nM.

Regarding `CC(=O)Nc1nc2c(s1)-c1c(c(C3CC3)nn1-c1ccccc1C(F)(F)F)CC2`, the IC50 was less than 600 nM.

In turn, `CC(=O)Nc1nc2c(s1)-c1c(c(C3CC3)nn1-c1ccc(C(=O)N(C)[C@H]3CC[C@@H](N(C)CC4CCCC4)CC3)cc1F)CC2` returned an IC50 of less than 600 nM.

Regarding `CCCN1CCC(NC(=O)c2ccc(-n3nc(C4CC4)c4c3-c3sc(NC(C)=O)nc3CC4)c(Cl)c2)CC1`, the IC50 is less than 600 nM.

The molecule `CC(=O)Nc1nc2c(s1)-c1c(c(C3CC3)nn1[C@H]1CC[C@@H](C(=O)NC3CCN(C4CCCC4)CC3)CC1)CC2` yielded an IC50 of less than 600 nM.

For `CCCN1CCC(NC(=O)c2ccc(-n3nc(C4CC4)c4c3-c3sc(NC(C)=O)nc3CC4)cc2F)CC1`, the IC50 was less than 600 nM.

Consider `CC(=O)Nc1nc2c(s1)-c1c(c(C3CCC3)nn1-c1ccc(C(=O)NC3CCN(C4CCOCC4)CC3)cc1Cl)CC2`, for which the IC50 is less than 600 nM.

`CC(=O)Nc1nc2c(s1)-c1c(c(C3CC3)nn1-c1ccc(C(=O)N(C)[C@H]3CC[C@@H](N4CCCCC4)CC3)cc1Cl)CC2` returned an IC50 of less than 600 nM.

`CC(=O)Nc1nc2c(s1)-c1c(c(C3CC3)nn1-c1ccc(C(=O)N(C)[C@H]3CC[C@@H](N(C)CC4CCCC4)CC3)c(C)c1)CC2` returned an IC50 of less than 600 nM.

As for `CC(=O)Nc1nc2c(s1)-c1c(c(C3CC3)nn1-c1ccc(C(=O)N[C@H]3CCN(C4CCCCC4)C3)cc1F)CC2`, the IC50 is less than 600 nM.
